Assay results as given in ChEMBL document CHEMBL3044761, “Lethal Activity of a Trehalase Inhibitor, Validoxylamine A, against Mamestra brassicae and Spodoptera litura” (J Pestic Sci, 1994).

Legend:
[1] = Inhibition of Rhizoctonia solani alpha-glucosidase; settings: read-out: I50
[2] = target: T1, Trehalase (Rattus norvegicus, UniProt O70282); test: Inhibition of Rattus norvegicus (rat) trehalase; settings: read-out: I50
T1 sequence (O70282 whole entry): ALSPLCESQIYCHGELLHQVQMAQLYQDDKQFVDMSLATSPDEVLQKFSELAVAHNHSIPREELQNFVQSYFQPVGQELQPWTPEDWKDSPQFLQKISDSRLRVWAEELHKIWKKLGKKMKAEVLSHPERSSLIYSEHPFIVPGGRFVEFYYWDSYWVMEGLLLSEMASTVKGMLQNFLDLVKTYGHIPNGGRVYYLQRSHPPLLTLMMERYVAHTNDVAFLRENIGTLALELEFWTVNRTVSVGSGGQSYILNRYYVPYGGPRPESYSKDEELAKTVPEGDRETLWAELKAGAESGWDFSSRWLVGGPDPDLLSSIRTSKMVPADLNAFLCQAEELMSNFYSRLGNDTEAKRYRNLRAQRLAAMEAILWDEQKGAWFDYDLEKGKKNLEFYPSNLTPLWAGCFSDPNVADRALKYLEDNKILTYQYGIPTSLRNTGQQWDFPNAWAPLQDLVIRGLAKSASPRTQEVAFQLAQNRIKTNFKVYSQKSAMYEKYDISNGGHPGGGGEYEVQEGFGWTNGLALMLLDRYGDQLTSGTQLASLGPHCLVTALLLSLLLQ

[3] = test system: Spodoptera litura; test: Insecticidal activity against last-instar Spodoptera litura larvae assessed as larval pupal intermediate injected at 50 ug/larvae (reference value: […]); type: functional
[4] = test system: Spodoptera litura; test: Insecticidal activity against last-instar Spodoptera litura larvae assessed as larval pupal intermediate injected at 10 ug/larvae (reference value: […]); type: functional
[5] = test system: Spodoptera litura; test: Insecticidal activity against last-instar Spodoptera litura larvae assessed as larval pupal intermediate injected at 2 ug/larvae (reference value: […]); type: functional
[6] = test system: Spodoptera litura; test: Insecticidal activity against last-instar Spodoptera litura larvae assessed as partial pupation at 50 ug/larvae topical application (reference value: […]); type: functional
[7] = test system: Spodoptera litura; test: Insecticidal activity against last-instar Spodoptera litura larvae assessed as partial pupation injected at 50 ug/larvae (reference value: 100%); type: functional
[8] = test system: Spodoptera litura; test: Insecticidal activity against last-instar Spodoptera litura larvae assessed as partial pupation injected at 10 ug/larvae (reference value: […]); type: functional
[9] = test system: Spodoptera litura; test: Insecticidal activity against last-instar Spodoptera litura larvae assessed as partial pupation injected at 0.4 ug/larvae (reference value: […]); type: functional
[10] = test system: Spodoptera litura; test: Insecticidal activity against last-instar Spodoptera litura larvae assessed as wing pad separation injected at 50 ug/larvae (reference value: 100%); type: functional
[11] = test system: Spodoptera litura; test: Insecticidal activity against last-instar Spodoptera litura larvae assessed as wing pad separation injected at 10 ug/larvae (reference value: 100%); type: functional
[12] = test system: Spodoptera litura; test: Insecticidal activity against last-instar Spodoptera litura larvae assessed as wing pad separation injected at 0.4 ug/larvae (reference value: 100%); type: functional
[13] = target: T2, Trehalase (Bombyx mori) (UniProt P32358); test: Inhibition of Bombyx mori trehalase activity in total ovaries at 10 ug/pupa; settings: Female gonad
T2 sequence (whole entry): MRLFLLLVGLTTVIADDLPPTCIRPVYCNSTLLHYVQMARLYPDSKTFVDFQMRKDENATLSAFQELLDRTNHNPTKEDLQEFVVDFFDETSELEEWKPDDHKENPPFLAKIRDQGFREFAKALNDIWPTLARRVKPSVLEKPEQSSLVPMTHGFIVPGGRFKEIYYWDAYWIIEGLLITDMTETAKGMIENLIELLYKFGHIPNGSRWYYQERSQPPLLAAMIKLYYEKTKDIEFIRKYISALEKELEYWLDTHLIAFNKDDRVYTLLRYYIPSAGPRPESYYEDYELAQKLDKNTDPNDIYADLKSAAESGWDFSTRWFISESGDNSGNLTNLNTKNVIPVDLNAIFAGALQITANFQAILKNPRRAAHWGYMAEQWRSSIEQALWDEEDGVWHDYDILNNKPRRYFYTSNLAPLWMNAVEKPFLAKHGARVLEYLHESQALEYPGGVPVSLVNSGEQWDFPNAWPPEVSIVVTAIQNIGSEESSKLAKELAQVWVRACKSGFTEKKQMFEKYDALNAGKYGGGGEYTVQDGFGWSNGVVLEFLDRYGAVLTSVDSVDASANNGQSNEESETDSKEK

[14] = target: T2, Trehalase (Bombyx mori); test: Inhibition of Bombyx mori trehalase activity in arborescent region of colleterial glands at 1 ug/pupa
[15] = Inhibition of Rhizoctonia solani beta-glucosidase; settings: read-out: I50
[16] = test system: Mamestra brassicae; test: Insecticidal activity against last-instar Mamestra brassicae larvae assessed as partial pupation injected at 10 ug/larvae (reference value: 10%); type: functional
[17] = test system: Mamestra brassicae; test: Insecticidal activity against last-instar Mamestra brassicae larvae assessed as partial pupation injected at 5 ug/larvae (reference value: 10%); type: functional
[18] = test system: Mamestra brassicae; test: Insecticidal activity against last-instar Mamestra brassicae larvae assessed as partial pupation injected at 1 ug/larvae (reference value: 10%); type: functional
[19] = test system: Mamestra brassicae; test: Insecticidal activity against last-instar Mamestra brassicae larvae assessed as wing pad separation at 50 ug/larvae topical application (reference value: 0%); type: functional
[20] = test system: Mamestra brassicae; test: Insecticidal activity against last-instar Mamestra brassicae larvae assessed as wing pad separation injected at 10 ug/larvae (reference value: 0%); type: functional
[21] = test system: Mamestra brassicae; test: Insecticidal activity against last-instar Mamestra brassicae larvae assessed as wing pad separation injected at 5 ug/larvae (reference value: 0%); type: functional
[22] = test system: Mamestra brassicae; test: Insecticidal activity against last-instar Mamestra brassicae larvae assessed as wing pad separation injected at 1 ug/larvae (reference value: 0%); type: functional
[23] = test system: Mamestra brassicae; test: Insecticidal activity against last-instar Mamestra brassicae larvae assessed as normal pupae injected at 50 ug/larvae (reference value: 90%); type: functional
[24] = test system: Mamestra brassicae; test: Insecticidal activity against last-instar Mamestra brassicae larvae assessed as normal pupae injected at 10 ug/larvae (reference value: 90%); type: functional
[25] = test system: Mamestra brassicae; test: Insecticidal activity against last-instar Mamestra brassicae larvae assessed as normal pupae injected at 5 ug/larvae (reference value: 90%); type: functional
[26] = test system: Mamestra brassicae; test: Insecticidal activity against last-instar Mamestra brassicae larvae assessed as normal pupae injected at 1 ug/larvae (reference value: 90%); type: functional
[27] = test system: Spodoptera litura; test: Insecticidal activity against last-instar Spodoptera litura larvae assessed as normal pupae injected at 10 ug/larvae (reference value: 100%); type: functional
[28] = test system: Spodoptera litura; test: Insecticidal activity against last-instar Spodoptera litura larvae assessed as normal pupae injected at 2 ug/larvae (reference value: 100%); type: functional
[29] = test system: Mamestra brassicae; test: Insecticidal activity against last-instar Mamestra brassicae larvae assessed as larval-pupal intermediate at 50 ug/larvae topical application (reference value: 0%); type: functional
[30] = test system: Mamestra brassicae; test: Insecticidal activity against last-instar Mamestra brassicae larvae assessed as larval-pupal intermediate injected at 10 ug/larvae (reference value: 0%); type: functional
[31] = test system: Mamestra brassicae; test: Insecticidal activity against last-instar Mamestra brassicae larvae assessed as larval-pupal intermediate injected at 5 ug/larvae (reference value: 0%); type: functional
[32] = test system: Mamestra brassicae; test: Insecticidal activity against last-instar Mamestra brassicae larvae assessed as larval-pupal intermediate injected at 1 ug/larvae (reference value: 0%); type: functional
[33] = test system: Mamestra brassicae; test: Insecticidal activity against last-instar Mamestra brassicae larvae assessed as partial pupation at 50 ug/larvae oral administration (reference value: 10%); type: functional

OCC1=C[C@H](N[C@H]2C[C@H](CO)[C@@H](O)[C@H](O)[C@H]2O)[C@H](O)[C@@H](O)[C@@H]1O [VALIDOXYLAMINE A] showed an IC50 [1] greater than 1000 µM, an IC50 [2] of 0.0049 µM and an Activity [3] of 58%. For the same compound, the Activity [4] was 25%, the Activity [5] was 15% and the Activity [6] was 5%. For the same compound, the Activity [7] was 30%, the Activity [8] was 40% and the Activity [9] was 10%. For the same compound, the Activity [10] was 13%, the Activity [11] was 15% and the Activity [12] was 5%. The inhibition [13] was 78%, the inhibition [14] was 78% and the IC50 [15] was greater than 1000 µM. For the same compound, the Activity [16] was 13%, the Activity [17] was 27% and the Activity [18] was 27%. It also gave an Activity [19] of 0%, an Activity [20] of 7% and an Activity [21] of 7%. The Activity [22] was 20%, the Activity [23] was 0% and the Activity [24] was 0%. It also gave an Activity [25] of 7%, an Activity [26] of 27% and an Activity [27] of 20%. It also gave an Activity [28] of 60%, an Activity [29] of 0% and an Activity [30] of 80%. The Activity [31] was 60%, the Activity [32] was 27% and the Activity [33] was 0%.
